{"source": "patent US8853387B2", "about": "“Mimetics of sulfated oligosaccharides” (Istituto di Ricerche Chimiche e Biochimiche “G. Ronzoni”, priority 2008, dated 2014)", "target": "T1, recombinant human heparanase (Homo sapiens, UniProt Q9Y251)", "T1 sequence (Q9Y251 158-543 limits assumed)": "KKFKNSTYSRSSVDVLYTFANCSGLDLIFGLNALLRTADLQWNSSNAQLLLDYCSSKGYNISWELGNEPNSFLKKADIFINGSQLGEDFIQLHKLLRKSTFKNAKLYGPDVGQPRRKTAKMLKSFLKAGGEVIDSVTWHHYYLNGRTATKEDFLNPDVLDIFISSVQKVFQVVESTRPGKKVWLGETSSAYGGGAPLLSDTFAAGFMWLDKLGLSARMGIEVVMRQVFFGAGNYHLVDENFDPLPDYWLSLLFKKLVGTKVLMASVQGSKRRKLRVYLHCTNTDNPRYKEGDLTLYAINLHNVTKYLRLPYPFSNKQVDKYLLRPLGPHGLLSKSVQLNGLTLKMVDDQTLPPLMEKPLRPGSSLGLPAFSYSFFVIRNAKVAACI", "T1 sequence (Q9Y251 36-109 limits assumed)": "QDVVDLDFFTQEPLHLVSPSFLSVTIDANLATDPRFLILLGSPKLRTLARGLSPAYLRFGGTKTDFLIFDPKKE", "test": "Heparanase activity on sulfate labeled ECM substrate", "assay_type": "biochemical", "conditions": "compound at 5 μg/ml; recombinant human heparanase 10 ng/ml, 37° C., pH 6.0, 4 h; control (enzyme alone) = 100", "description": "Sulfated compound was tested at two concentrations (1 & 5 μg/ml) for its ability to inhibit the heparanase enzyme, using metabolically sulfate labeled ECM as a substrate. Briefly, sulfate labeled ECM coating the surface of 35-mm tissue culture dishes, is incubated (37° C., pH 6.0, 4 h, 1 ml final volume) with recombinant human heparanase (10 ng/ml) in the absence and presence of increasing amounts of each compound. The reaction mixture contains: 50 mM NaCl, 1 mM DTT, 1 mM CaCl2, and 10 mM buffer Phosphate-Citrate, pH 6.0. To evaluate the occurrence of proteoglycan degradation, the incubation medium is collected and applied for gel filtration on Sepharose 6B columns (0.9×30 cm). Fractions (0.2 ml) are eluted with PBS at a flow rate of 5 ml/h and counted for radioactivity. The excluded volume (VO) is marked by blue dextran and the total included volume (Vt) by phenol red. Degradation fragments of HS side chains are eluted at 0.5<Kav<0.8 (peak II). Results are best presented as the actual gel filtration profiles. Numerical values derived from these graphs are presented in FIG. 1 as heparanase activity (% of control), where: Heparanase activity=Kav×total cpm in peak II (fractions 15-35). Kav=(Ve−Vo/Vt−Vo). • Control Kay=Kay obtained in the presence of enzyme alone (without inhibitors). Effect of Sulfated Malto-Oligosaccharides Mimics (MOS) on Hpa Activity—Tables 1 and 2."}
{"substance": "Maltohexaose sulfate [MHS]", "values": [{"measurement": "Heparanase activity (5 μg/ml)", "value": "27 % of control"}]}
